Experimental data from PubChem BioAssay AID330 (DTP/NCI, 2004).
Several values for one entry are separate records, joined by “and”; a condition that tells them apart may be missing. Identical values can stand only once. Toxic doses and inconclusive results are not listed. The calls were made as follows: active = survival T/C of 150% or more; inactive = T/C below 125% in these data.

Tested on: P388 leukemia ip, CD2F1 mice, survival T/C
Test: NCI In Vivo Anticancer Drug Screen. Data for tumor model P388 Leukemia (intraperitoneal) in CD2F1 (CDF1) mice
Settings: endpoint: median survival time, higher = longer survival
How it was run: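 Mice carrying the transplanted tumor received test compound or vehicle. Survival was recorded in each group, and the value is the treated-group measurement divided by that of the vehicle-treated control group.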

Measured: T/C

CC(C)NC(=O)OCc1c(COC(=O)NC(C)C)c(-c2ccc(Cl)c(Cl)c2)n2c1CCC2
active: dose: 2.34 mg/kg/injection, schedule: Q01DX009 (ip), vehicle: other 151 % of control | dose: 2.34 mg/kg/injection, schedule: Q01DX009 (ip), vehicle: saline with Tween-80 151 % of control | dose: 4.69 mg/kg/injection, schedule: Q01DX009 (ip), vehicle: other 154 % of control | dose: 4.69 mg/kg/injection, schedule: Q01DX009 (ip), vehicle: saline with Tween-80 150 % of control and 153 % of control | dose: 6.0 mg/kg/injection, schedule: Q01DX009 (ip), vehicle: other 152 % of control | dose: 6.25 mg/kg/injection, schedule: Q01DX005 (ip), vehicle: Klucel (hydroxypropylcellulose) (HPC) 164 % of control and 168 % of control | dose: 6.25 mg/kg/injection, schedule: Q01DX005 (ip), vehicle: other 164 % of control | dose: 6.25 mg/kg/injection, schedule: Q01DX005 (ip), vehicle: saline with Tween-80 151 % of control | dose: 6.25 mg/kg/injection, schedule: Q01DX009 (ip), vehicle: other 155 % of control and 160 % of control | dose: 6.25 mg/kg/injection, schedule: Q01DX009 (ip), vehicle: saline with Tween-80 158 % of control | dose: 9.38 mg/kg/injection, schedule: Q01DX009 (ip), vehicle: other 154 % of control and 198 % of control | dose: 9.38 mg/kg/injection, schedule: Q01DX009 (ip), vehicle: saline with Tween-80 157 % of control | dose: 12.0 mg/kg/injection, schedule: Q01DX005 (ip), vehicle: other 153 % of control | dose: 12.0 mg/kg/injection, schedule: Q01DX009 (ip), vehicle: other 169 % of control | dose: 12.5 mg/kg/injection, schedule: Q01DX005 (ip), vehicle: Klucel (hydroxypropylcellulose) (HPC) 151 % of control and 160 % of control and 163 % of control | dose: 12.5 mg/kg/injection, schedule: Q01DX005 (ip), vehicle: other 177 % of control | dose: 12.5 mg/kg/injection, schedule: Q01DX009 (ip), vehicle: other 165 % of control and 167 % of control | dose: 12.5 mg/kg/injection, schedule: Q01DX009 (ip), vehicle: saline with Tween-80 151 % of control | dose: 18.75 mg/kg/injection, schedule: Q01DX009 (ip), vehicle: saline with Tween-80 166 % of control and 167 % of control | dose: 24.0 mg/kg/injection, schedule: Q01DX005 (ip), vehicle: other 178 % of control | dose: 24.0 mg/kg/injection, schedule: Q01DX009 (ip), vehicle: other 184 % of control | dose: 25.0 mg/kg/injection, schedule: Q01DX005 (ip), vehicle: Klucel (hydroxypropylcellulose) (HPC) 154 % of control and 168 % of control and 179 % of control | dose: 25.0 mg/kg/injection, schedule: Q01DX005 (ip), vehicle: other 199 % of control | dose: 25.0 mg/kg/injection, schedule: Q01DX005 (ip), vehicle: saline with Tween-80 162 % of control | dose: 25.0 mg/kg/injection, schedule: Q01DX009 (ip), vehicle: Klucel (hydroxypropylcellulose) (HPC) 168 % of control | dose: 25.0 mg/kg/injection, schedule: Q01DX009 (ip), vehicle: saline with Tween-80 166 % of control | dose: 40.0 mg/kg/injection, schedule: Q01DX009 (ip), vehicle: Klucel (hydroxypropylcellulose) (HPC) 155 % of control | dose: 48.0 mg/kg/injection, schedule: Q01DX001 (ip), vehicle: other 168 % of control | dose: 48.0 mg/kg/injection, schedule: Q01DX005 (ip), vehicle: other 174 % of control | dose: 50.0 mg/kg/injection, schedule: Q01DX005 (ip), vehicle: Klucel (hydroxypropylcellulose) (HPC) 163 % of control and 205 % of control and 206 % of control | dose: 50.0 mg/kg/injection, schedule: Q01DX005 (ip), vehicle: other 186 % of control | dose: 50.0 mg/kg/injection, schedule: Q01DX009 (ip), vehicle: Klucel (hydroxypropylcellulose) (HPC) 239 % of control | dose: 50.0 mg/kg/injection, schedule: Q01DX009 (ip), vehicle: saline with Tween-80 187 % of control | dose: 60.0 mg/kg/injection, schedule: Q01DX005 (ip), vehicle: saline with Tween-80 151 % of control | dose: 100.0 mg/kg/injection, schedule: Q01DX009 (ip), vehicle: saline with Tween-80 177 % of control
inactive: dose: 0.58 mg/kg/injection, schedule: Q01DX009 (ip), vehicle: saline with Tween-80 112 % of control | dose: 1.17 mg/kg/injection, schedule: Q01DX009 (ip), vehicle: saline with Tween-80 120 % of control | dose: 1.5 mg/kg/injection, schedule: Q01DX001 (ip), vehicle: other 109 % of control | dose: 1.5 mg/kg/injection, schedule: Q01DX001 (iv), vehicle: other 102 % of control | dose: 1.5 mg/kg/injection, schedule: Q01DX005 (ip), vehicle: other 122 % of control | dose: 1.5 mg/kg/injection, schedule: Q01DX005 (iv), vehicle: other 107 % of control | dose: 1.5 mg/kg/injection, schedule: Q01DX005 (oral), vehicle: other 98 % of control | dose: 1.5 mg/kg/injection, schedule: Q01DX009 (oral), vehicle: other 100 % of control | dose: 1.56 mg/kg/injection, schedule: Q01DX009 (ip), vehicle: distilled water + Tween-80 122 % of control | dose: 3.0 mg/kg/injection, schedule: Q01DX001 (ip), vehicle: other 116 % of control | dose: 3.0 mg/kg/injection, schedule: Q01DX001 (iv), vehicle: other 100 % of control | dose: 3.0 mg/kg/injection, schedule: Q01DX001 (oral), vehicle: other 98 % of control | dose: 3.0 mg/kg/injection, schedule: Q01DX005 (iv), vehicle: other 108 % of control | dose: 3.0 mg/kg/injection, schedule: Q01DX005 (oral), vehicle: other 100 % of control | dose: 3.0 mg/kg/injection, schedule: Q01DX009 (oral), vehicle: other 100 % of control | dose: 3.13 mg/kg/injection, schedule: Q01DX009 (ip), vehicle: distilled water + Tween-80 117 % of control | dose: 6.0 mg/kg/injection, schedule: Q01DX001 (iv), vehicle: other 104 % of control | dose: 6.0 mg/kg/injection, schedule: Q01DX001 (oral), vehicle: other 99 % of control | dose: 6.0 mg/kg/injection, schedule: Q01DX005 (iv), vehicle: other 114 % of control | dose: 6.0 mg/kg/injection, schedule: Q01DX005 (oral), vehicle: other 98 % of control | dose: 6.0 mg/kg/injection, schedule: Q01DX009 (oral), vehicle: other 100 % of control | dose: 6.25 mg/kg/injection, schedule: Q01DX009 (oral), vehicle: distilled water + Tween-80 97 % of control | dose: 7.5 mg/kg/injection, schedule: Q01DX005 (ip), vehicle: saline with Tween-80 118 % of control | dose: 12.0 mg/kg/injection, schedule: Q01DX001 (iv), vehicle: other 113 % of control | dose: 12.0 mg/kg/injection, schedule: Q01DX001 (oral), vehicle: other 100 % of control | dose: 12.0 mg/kg/injection, schedule: Q01DX005 (oral), vehicle: other 100 % of control | dose: 12.0 mg/kg/injection, schedule: Q01DX009 (oral), vehicle: other 102 % of control | dose: 12.5 mg/kg/injection, schedule: Q01DX009 (oral), vehicle: distilled water + Tween-80 103 % of control | dose: 24.0 mg/kg/injection, schedule: Q01DX001 (oral), vehicle: other 100 % of control | dose: 24.0 mg/kg/injection, schedule: Q01DX005 (oral), vehicle: other 102 % of control | dose: 24.0 mg/kg/injection, schedule: Q01DX009 (oral), vehicle: other 102 % of control | dose: 25.0 mg/kg/injection, schedule: Q01DX009 (ip), vehicle: other 100 % of control | dose: 25.0 mg/kg/injection, schedule: Q01DX009 (oral), vehicle: distilled water + Tween-80 92 % of control | dose: 48.0 mg/kg/injection, schedule: Q01DX001 (oral), vehicle: other 100 % of control | dose: 48.0 mg/kg/injection, schedule: Q01DX005 (oral), vehicle: other 107 % of control | dose: 48.0 mg/kg/injection, schedule: Q01DX009 (ip), vehicle: other 106 % of control | dose: 48.0 mg/kg/injection, schedule: Q01DX009 (oral), vehicle: other 119 % of control | dose: 50.0 mg/kg/injection, schedule: Q01DX009 (oral), vehicle: distilled water + Tween-80 110 % of control | dose: 100.0 mg/kg/injection, schedule: Q01DX005 (ip), vehicle: saline with Tween-80 90 % of control | dose: 100.0 mg/kg/injection, schedule: Q01DX009 (ip), vehicle: distilled water + Tween-80 113 % of control | dose: 100.0 mg/kg/injection, schedule: Q01DX009 (oral), vehicle: distilled water + Tween-80 97 % of control | dose: 200.0 mg/kg/injection, schedule: Q01DX005 (ip), vehicle: distilled water + Tween-80 104 % of control | dose: 200.0 mg/kg/injection, schedule: Q01DX009 (oral), vehicle: distilled water + Tween-80 111 % of control

N#CCNCC#N
inactive: dose: 100.0 mg/kg/injection, schedule: Q04DX002 (ip), vehicle: saline 102 % of control | dose: 200.0 mg/kg/injection, schedule: Q04DX002 (ip), vehicle: saline 103 % of control | dose: 400.0 mg/kg/injection, schedule: Q04DX002 (ip), vehicle: saline 102 % of control
